Laboratory results as given in patent publication US20090203661A1, “Betulinic acid, derivatives and analogs thereof and uses therefor” (priority 2006, published 2009).

How the values were obtained:
PPARγ = target: T1, PPARγ (Homo sapiens, UniProt P37231); experiment: Mammalian two-hybrid assay (VP-PPARγ / GAL4-coactivator) in SW480 cells; assay type: cell-based
T1 construct: containing the DEF region of the PPARγ (amino acids 183-505) fused to the pVP16 expression vector; expressed in transfected cells; host or cells: SW480 colon cancer cells; plasmid provided by Dr. Shigeaki Kato (University of Tokyo)
T1 sequence (P37231 183-505): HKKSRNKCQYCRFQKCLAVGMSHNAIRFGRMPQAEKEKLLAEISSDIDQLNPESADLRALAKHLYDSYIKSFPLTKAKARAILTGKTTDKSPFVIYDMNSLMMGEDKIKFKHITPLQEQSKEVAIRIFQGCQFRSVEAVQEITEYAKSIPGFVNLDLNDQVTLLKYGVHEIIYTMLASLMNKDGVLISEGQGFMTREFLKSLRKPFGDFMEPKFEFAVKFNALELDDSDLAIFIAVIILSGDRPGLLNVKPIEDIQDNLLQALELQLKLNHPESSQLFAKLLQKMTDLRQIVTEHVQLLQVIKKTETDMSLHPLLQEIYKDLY
Method: The GAL4 reporter construct containing 5×GAL4 response elements (p GAL4) was provided by Dr. Marty Mayo (University of […], Chapel Hill, N.C.). The GAL4-coactivator fusion plasmids pM-SRC1, pMSRC2, pMSRC3, pM-DRIP205, pM-CARM-1 and PPARγ-VP16 fusion plasmid (Vp-PPARγ) containing the DEF region of the PPARγ (amino acids 183-505) fused to the pVP16 expression vector were provided by Dr. Shigeaki Kato (University of Tokyo, Tokyo, Japan). SW480 colon cancer cells were plated in 12-well tissue culture plates at 1×10^5 cells per well in DMEM/Ham's F-12 medium supplemented with 2.5% charcoal stripped FBS.
After allowing them to adhere overnight, transient transfections were carried out with GAL4-Luc (0.4 μg), β-GAL (0.04 μg), VP-PPARγ (0.04 μg), pM-SRC1 (0.04 μg), pM-PGC-1 (0.04 μg), pM-SMRT (0.04 μg), pM-TRAP220 (0.04 μg), pM-DRIP205 (0.04 μg), and pMCARM1 (0.04 μg) using LipofectAMINE2000 (Invitrogen) following the manufacturer's guidelines. After 6 hr of transfection, cells were treated in triplicate either with vehicle (DMSO) or the indicated compound suspended in complete medium for 20-24 hr. One hundred μL per well of 1× Reporter Lysis Buffer (Promega) was used to lyse the cells and 30 μl of this lysate was used to perform the luciferase and β-GAL assays using Lumicount (Perkin-Elmer Life and Analytical Sciences, Boston, Mass.). The luciferase activities obtained were normalized to the β-gal activity.

p21 promoter = p21 promoter luciferase transactivation in Panc-28 cells; assay type: cell-based, human; conditions: for transactivation, p21-luc(Fl) (−2325 to +8): Panc-28; for effect of T007 on induced p21-luc(Fl) luciferase activity: cotreatment with T007
Method: Cells were seeded onto the 12-well plates and 0.4 μg of GAL4-Luc, 0.04 μg of β-GAL, 0.04 μg of GAL4DBD-PPARγ, and 0.4 μg of p21-luc(FL) containing −2325 to +8 insert, 0.4 μg of p21-luc (−124) containing −124 to +8 insert and 0.4 μg of p21-LUC (−60) containing −60 to +8 insert were transfected using LipofectAMINE reagent (Invitrogen) following the manufacturer's protocol. Cells were treated either with vehicle or respective compounds suspended in complete medium after 6 hr of transfection. Cell lysate is extracted after 20-22 hr by adding 100 μl of 1× reporter lysis buffer per well and 30 μl of this extract is used to quantitate the luciferase activity using Lumicount (Perkin-Elmer Life and Analytical Sciences). Each experiment is done in triplicate and the results are normalized to the β-GAL activity.

HCT-15 cells = experiment: Caveolin-1 expression (Western blot) in HCT-15 cells; assay type: cell-based, human; conditions: HCT-15, cotreatment with T007
Method: SW480, HT-29, HCT-15 and Panc-28 (3×10^5) colon cancer cells were seeded in 6-well tissue culture plates in DMEM/Ham's F-12 medium containing 2.5% charcoal-stripped FBS. Protein is extracted from the cells treated either with vehicle or indicated compounds suspended for 24 hr except for caveolin-1 protein which was done for 72 hr. Samples were extracted in high salt buffer [50 mmol/L HEPES, 500 mmol/L NaCl, 1.5 mmol/L MgCl2, 1 mmol/L EGTA, 10% glycerol, and 1% Triton X-100 (pH 7.5), and 5 μL/mL protease inhibitor cocktail (Sigma-Aldrich)]. Samples were incubated at 100° C. for 2 min, separated on either 10% or 12% SDS-PAGE gels and then transferred to polyvinylidene difluoride membrane (PVDF; Bio-Rad, Hercules, Calif.). The PVDF membrane was blocked in 5% TBST-Blotto (10 mM Tris HCl, 150 mM NaCl, pH 8.0, 0.05% Triton X-100, and 5% nonfat dry milk) for about 30 min and was then incubated in fresh 5% TBST-Blotto with 1:1000 for caveolin-1 (Santa Cruz Biotechnology, Santa Cruz, Calif.), 1:1000 for p21 (BD Pharmingen, Frank lakes, NJ) and 1:10000 for β-actin (Sigma) primary antibody overnight with gentle shaking at 4° C. After washing with TBST for 10 min, the membrane was incubated with respective secondary antibody (1:5000) (Santa cruz, Calif.) in 5% TBST-Blotto for 3 hr. […]

HT-29 cells = experiment: miR-27a and ZBTB10 mRNA expression in HT-29 cells; assay type: cell-based, human

activation of GAL4-CARM1 (PPARγ)	SMILES	luciferase activity, VP-PPARγ with GAL4 PGC-1 and GAL4 SRC-1 (PPARγ)	transactivation, p21-luc(Fl) (−2325 to +8) (p21 promoter)	effect of T007 on induced p21-luc(Fl) luciferase activity (p21 promoter)	effect of T007 on induced caveolin-1 response (HCT-15 cells)	ZBTB10 expression (HT-29 cells)	miR-27a expression (HT-29 cells)	concentration giving significant induction of p21-luc(60) (p21 promoter; construct lacking GC-rich sites 3 and 4) [µM]
activated	COC(=O)C12CCC(C(C)C)C1C1CCC3C4(C)C=C(C#N)C(=O)C(C)(C)C4CCC3(C)C1(C)CC2 (centres unmarked) [CN-BA-Me, Methyl 2-cyano-lup-1-en-3-oxo-20-oate]	significantly induced luciferase activity	induce transactivation	inhibited	inhibition of the induced caveolin-1 response	increased expression of ZBTB10	decreased expression of miR-27a	
	CC(C)C1CCC2(C(=O)O)CCC3(C)C(CCC4C5(C)C=C(C#N)C(=O)C(C)(C)C5CCC43C)C12 (centres unmarked) [CN-BA]	significantly induced luciferase activity	induce transactivation	inhibited	inhibition of the induced caveolin-1 response	increased expression of ZBTB10	decreased expression of miR-27a	7.5
